Reference: PubChem BioAssay AID179 (DTP/NCI, 2004)
The source made the active and inactive calls.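 How the source made its calls: active means compounds giving half or more protection of infected cells from virus-caused growth loss, again on retest; inactive means the rest.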

Tested on: CEM cells HIV-1 protection, formazan growth assay
Test: NCI AIDS Antiviral Assay
Conditions: for IC50: measured here: growth of uninfected CEM cells
How it was run: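 Human CEM cells, uninfected and HIV-1-infected, exposed to five drug concentrations; growth measured by soluble formazan assay and scored as percent protection from infection, with protecting compounds retested.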

SMILES	EC50 [µM]	IC50 [µM]	outcome
CC(C)(C)C(=O)OCOP(=O)(OCOC(=O)C(C)(C)C)OCC1OC(n2cc(F)c(=O)[nH]c2=O)CC1O (stereo unspecified)	> 151	2.09	–
c1ccc2c(CN3CCC(C4CCN(Cc5cccc6ccccc56)CC4)CC3)cccc2c1	> 200	0.933	–
COc1cc(CC2c3cc(OC)c(OC)cc3CCN2C)ccc1O (stereo unspecified)	> 380	138	–
N#CCCN(CCCN(CCCN(C(=O)Nc1ccccc1)c1ccccc1)C(=O)Nc1ccccc1)C(=O)Nc1ccccc1	> 200	87.1	–
CC(C)c1cccc(C(C)C)c1NC(=O)C(=O)C1SC(=S)NC1=O (stereo unspecified)	> 692	> 692	–
CCOC(=O)C(C)Sc1nnc(COc2ccccc2OC)n1-c1ccccc1 (stereo unspecified)	> 200	162	–
COC1=CC(=O)C2C(C1=O)C(c1ccc(Cl)cc1)[C@@H]2C (stereo partly specified)	> 170	28.2	–
CC1=C(c2cc(C(=O)Nc3cccc(Cl)c3)nc(NC#N)n2)Sc2ccccc2N1	–	–	inactive
O=c1[nH]c2c(c(=O)[nH]1)SSC2	> 200	0.631	–
N#C/C(=C\NC(=S)N=Nc1c(O)[nH]c2ccccc12)C(=O)c1ccc2ccccc2c1	> 200	120	–
Nc1cccc(C#Cc2cccc(C#Cc3cccc(N)n3)n2)n1	> 200	75.9	–
C[CH2][Sn]([CH2]C)([S]CCS(=O)(=O)O)[S]CCS(=O)(=O)O (tested in a mixture with another compound)	> 200	3.16	–
NC(=S)N/N=C1/CN(c2ccc(Cl)c(Cl)c2)CC(=O)C1c1nc2ccccc2s1 (stereo unspecified)	–	–	inactive
CNc1nc(N)[nH]c(=O)c1N=O	–	–	inactive
CN1CCc2ccccc2/C(=C(/O)c2ccccc2)C1=O	–	–	inactive
CCOC(=O)c1c(N2CCOCC2)[nH]c(=O)c(C(c2ccco2)c2c(O)c(C(=O)OCC)c(N3CCOCC3)[nH]c2=O)c1O	> 200	> 200	–
Cc1ccccc1N(C)S(=O)(=O)c1ccccc1[N+](=O)[O-]	> 200	38.9	–
Cn1ncc2c(Nc3ccc(Cl)cc3)c3ccccc3nc21	–	–	inactive
CCOP(=O)(OCC)/C(C#N)=C/c1ccc([N+](=O)[O-])cc1	> 813	575	–
COc1cc2c(cc1OC)OC(c1c(OC)ccc(OC)c1O)CC2 (stereo unspecified)	> 100	> 100	–
Cc1cnc2c(c1)C(=O)N(c1ccc(Oc3ccccc3)cc1)S2(=O)=O	> 200	> 200	–
CSCCCSC1CCCCCCCCCCC1=O (stereo unspecified)	> 200	> 200	–

SMILES	EC50 [µM]	IC50 [µM]	outcome
COc1cc2c(c3oc4c(c(=O)c13)CCCC4)CCC(C)(C)O2	> 56.2	23.4	–
COc1ccc(Oc2c(OC)cc(NCCCCCN3C(=O)c4ccccc4C3=O)c3ncccc23)cc1	> 100	> 100	–
COc1ccc(-c2cc(-c3ccccc3)c3c(n2)-c2ccccc2NC(=O)C3)cc1	> 200	38	–
CC1(C)CC(=O)C2=C(C1)OC1=C(C(=O)CC(C)(C)C1)C2C(O)C(O)C(O)CO (stereo unspecified)	> 200	> 200	–
N=C(N)SCc1c2ccccc2c(CSC(=N)N)c2ccccc12	> 20	3.16	–
CC1(C)OC[C@@H](C[C@H](O)COCc2ccccc2)O1	> 200	> 200	–
CC#CCCC1CCCCN(C(=O)OC)C1OCC (stereo unspecified)	> 933	166	–
NC(=O)c1nnsc1NC=O	> 200	> 200	–
O=C1/C(=C/c2ccc(Cl)cc2)CCC/C1=C\c1ccc(O)c(CN2CCCCC2)c1	> 100	5.25	–
CCN(Cc1ccccc1)c1ccc(/C=C/c2ccnc3ccccc23)cc1	> 10.2	8.32	–
C=CCNC(=O)NC1=CSC2=NC(=O)C3(NN12)c1ccccc1-c1ccccc13	> 200	58.9	–
COc1cc2cnc3c4cc(OC(C)C)c(OC)cc4ccc3c2cc1OC	–	–	inactive
CC(=O)Oc1ccc2c(c1)O/C(=C\c1ccc(O)cc1)C2=O	> 200	138	–
CCOC(=O)C1=C2c3cccnc3-c3ccccc3N2C(C(=O)OCC)C1C(=O)OCC (stereo unspecified)	–	–	inactive
Cc1ccccc1-n1c(C)nc2ccccc2c1=O	> 269	> 269	–
C=CCn1c(-c2ccc([N+](=O)[O-])cc2)csc1=N	> 200	26.3	–
Cc1ccc(-c2nnc(-c3nn(-c4ccccc4)c4nc5ccccc5nc34)o2)cc1	–	–	inactive
O=C(O)CCSSCCCS(=O)O	105	191	–
Clc1ccc(CN2COc3c(cc(Cl)c4cccnc34)C2)cc1Cl	> 200	1.07	–
CCOC(=O)/C(=C\c1cccc(C)c1)C(C)=O	> 407	63.1	–
O=C1NC(Cc2ccc([N+](=O)[O-])cc2)C(=O)N2CCCC12 (stereo unspecified)	> 200	> 200	–
COc1ccc(C[C@H](N)C(=O)N2C[C@@H](CO)C[C@@H](n3cnc4c(N(C)C)ncnc43)C2)cc1	> 275	> 275	–

SMILES	EC50 [µM]	IC50 [µM]	outcome
Cn1c(=O)c2nc(NCC3CCCCC3)sc2n(C)c1=O	> 107	102	–
CC(C)(C)c1cc(C(=O)/C=C/c2ccccc2)cc(C(C)(C)C)c1O	> 21.4	> 21.4	–
CCOP(=O)(O)CN1CCNCCN(CP(=O)(O)OCC)CCNCC1	> 100	> 100	–
CCCCCNC(=O)C(O)C(O)C(=O)NCCCCC (stereo unspecified)	> 126	> 126	–
NNC(=O)Cn1c2ccc(Br)cc2c2nc3ccccc3nc21	> 200	28.2	–
COc1ccc(-c2sc(N)c(C#N)c2C)cc1OC	–	–	inactive
COC(=O)C(=O)C(C(C)=O)C(=O)NCc1ccccc1 (stereo unspecified)	47.9	67.6	–
CCCCCCCCCCNC(=S)OCCCC	–	–	inactive
OC(CC(O)(C(F)(F)F)C(F)(F)F)c1cccs1 (stereo unspecified)	> 200	93.3	–
ClCCCN1CCN(CCCl)CC1	> 832	21.4	–
CC(C)=CC(=O)O[C@@H]1CC(C)(C)CC2C3=CCC4[C@]56CC[C@](O)(OC5)C(C)(C)C6CC[C@@]4(C)C3(C)CC[C@]21C(=O)O (stereo partly specified)	> 200	10.2	–
OCC1(CO)COC2(CCCCC2)N1	> 1230	> 1230	–
O=C(NNC(=O)c1nsc2ccccc12)c1ccc(Cl)cc1	> 8.13	> 8.13	–
Nc1c(S(=O)(=O)O)cc2cc(S(=O)(=O)O)ccc2c1N=Nc1ccc(/C=C/c2ccc(N=Nc3c(N)c(S(=O)(=O)O)cc4cc(S(=O)(=O)O)ccc34)cc2S(=O)(=O)O)c(S(=O)(=O)O)c1	2.82	79.4	–
COC(=O)C12Oc3ccc(-c4ccc5c(c4O)C(=O)C4=CCC(C)C(O)C4(C(=O)OC)O5)c(O)c3C(=O)C1=CCC(C)C2O (stereo unspecified)	> 12	1.78	–
CSc1nc2c(=O)n(-c3ccccc3)c(=S)n(-c3ccccc3)c2s1	> 200	117	–
CC(O)C(O)C(O)C(O)c1nc2ccccc2[nH]1 (stereo unspecified)	–	–	inactive
CCN(CC)CCC(=O)OC1C(C)=CC(C)C(=O)CC(C(C)CC2CCC(O)C(OC)C2)OC(=O)C2CCCCN2C(=O)C(=O)[C@@]2(O)OC(CCC2C)CC(OC)\C(C)=C/C=C/C=C/C(C)CC(C)C(=O)C1OC (stereo partly specified)	> 200	9.12	–
CC(NS(=O)(=O)c1ccc(Cl)cc1)C(=O)O (stereo unspecified)	–	–	inactive
C1=Cc2cccc3occ(c23)C=C1	> 200	28.8	–
CCOC(=O)c1c(NC(=O)c2ccccc2)sc2c1CCC2	> 151	> 151	–
COc1ccc2c3c(cnc2c1)P(C)(=O)CC3 (stereo unspecified)	–	–	inactive

SMILES	EC50 [µM]	IC50 [µM]	outcome
CCc1cccc(C(C)C)c1NC(=O)C(=O)C(Cc1nc2ccccc2[nH]c1=O)C(=O)OC (stereo unspecified)	> 112	> 112	–
Nc1nc(N)c(N=O)c(Nc2ccccc2)n1	> 200	33.9	–
N#Cc1nc(NC(=O)c2ccccc2C(=O)O)c(C#N)[nH]1	> 200	> 200	–
CC[S+](C)c1ccc(-c2c3nc(c(-c4ccc([S+](C)CC)cc4)c4ccc([nH]4)c(-c4ccc([S+](C)CC)cc4)c4nc(c(-c5ccc([S+](C)CC)cc5)c5ccc2[nH]5)C=C4)C=C3)cc1 (stereo unspecified)	4.79	13.2	–
O=C(O)c1ccccc1O	> 1820	692	inactive
Cc1ccc(Nc2nc(NS(=O)(=O)c3cc(C)c(Cl)cc3S)n[nH]2)cc1	> 191	178	–
COc1cccc(N2C(=O)c3c(c4[nH]c5ccccc5c4c4ccc(C(C)(C)C)cc34)C2=O)c1	> 11.5	> 11.5	–
Cc1ccc2nn(-c3ccc(O)cc3)nc2c1	–	–	inactive
COc1ccc(C2=Nc3ccccc3N=C(SC)C2)cc1	2.4	17.8	–
CC(=O)Oc1ccc(/C=C/S(=O)(=O)CS(=O)(=O)/C=C/c2ccc(OC(C)=O)c(OC(C)=O)c2)cc1OC(C)=O	> 20	11	–
Cc1ccc(/C=N/Nc2cc(C)c3cccc(C)c3n2)s1	> 200	5.75	–
CCCNC(=O)Cn1c2c(c3ccccc31)CCCC2	> 200	69.2	–
C[C@]12CC[C@H](OC(=O)CCC(=O)O)C[C@H]1CC[C@@H]1[C@@H]2CC[C@]2(C)C(c3ccc(=O)oc3)CC[C@]12O (stereo partly specified)	> 0.2	0.0162	–
O=C(O)CCCCCCCCCCCF	> 200	186	–
CCC1(N)COC(c2ccccc2)OC1 (stereo unspecified)	> 200	> 200	–
NC(N)=N/N=C(\c1nc2ccc([N+](=O)[O-])cc2[nH]c1=O)C(O)c1ccc([N+](=O)[O-])cc1 (stereo unspecified)	> 158	> 158	–
O=C(NCc1ccccc1)/C(=C/c1ccccc1)NC(=O)c1ccccc1	> 200	> 200	–
Cc1cccc(C(C)(C)C)c1NC(=O)C(=O)C(C(=O)/C=C\c1ccccc1)C1OC(=O)c2ccccc21 (stereo unspecified)	> 214	58.9	–
Nc1ccn(C2SC(CO)CC2F)c(=O)n1 (stereo unspecified)	> 25.1	> 25.1	–
CN(C)CCNc1nc2c(no[n+]2[O-])c2ccccc12	> 200	9.33	–
CCOC(=O)C(Cc1cn(C(C)=O)c2ccccc12)P(=O)(OCC)OCC (stereo unspecified)	> 200	> 200	–
